Measured values: US20260232666A1, “COMPOSITIONS AND METHODS FOR INHIBITION OF RAS” (TheRas, Inc., priority 2023, published 2026)

How the values were obtained:
[1] = target: T1, Avi-KRAS G12C (1-169) GppNHp/RAF1 RBD-3×FLAG (52-151) (Homo sapiens, UniProt P01116, G12C); assay: Raf1 RBD-KRAS G12C-GppNHp disruption assay (protein:protein interaction HTRF); format: biochemical
T1 construct: Avi-KRAS G12C (1-169) GppNHp; Avi (N)
Method: Biological Example 2: Disrupting KRAS G12C-Effector Binding (Protein: Protein Interaction HTRF Assay)
A protein: protein interaction (PPI) Homogeneous Time Resolved Fluorescence (HTRF) assay was used to determine the effectiveness of compounds of the present disclosure in disrupting KRAS G12C protein and effector (RAF1 Ras Binding Domain (RBD)) binding.
The HTRF assay used the following reagents and proteins: 50 nM Avi-KRAS G12C (1-169) GppNHp/RAF1 RBD-3×FLAG (52-151); 35 nM Avi-PI3K RBD-3×FLAG; Assay Buffer: 50 mM Tris pH 7.5, 100 mM NaCl, 5 mM MgCl2, 0.1% BSA, 0.01% Tween 20, 10% DMSO; Bead Buffer: 50 mM Tris pH 7.5, 0.01% Tween 20; Assay volume: 20 μL (384 well plate-low volume format); and Compound titration: 30-0.02 μM, 3× dilution series.
The HTRF assay employed the following protocol:
Compounds were dispensed in assay plate (384-well, Grenier Bio-One #784075) using Echo (model 555) with dose response settings: 200 nL final volume, titration from 100 μM as a 10-point dilution series. KRAS proteins were prepared in assay buffer, and dispensed on plates, 5 μL per well, then incubated for 1 h at room temperature, with 700 rpm shaking. RAF1 RBD were prepared in assay buffer, dispensed onto plates, 5 μL per well, and then incubated for 1 h at room temperature, with 700 rpm shaking. Reagent mix was then prepared and dispensed on plates, 10 μL per well, and then incubated for 1 h at room temperature, with 700 rpm shaking.
Plates were analyzed on an Envision plate reader using the following setting: Excitation 320 nm, Bandwidth 75 nm; Emission 615 nm, Bandwidth 85 nm; Gain 100%; Flashes 100; Lag 60 μs. Data was reported as percentage of activity, with DMSO as 100%. Data was plotted and analyzed using Prism 8.
The percent of modification of GppNHp, GTP, or GDP loaded KRAS G12C by MALDI-TOF MS, biochemical Raf1 RBD-KRAS G12C-GppNHp disruption assay IC50, and pERK inhibition IC50 of selected compounds described herein are shown in Table 4. For percent of modification at 15 minutes (MALDI-TOF MS) of GppNHp, GTP, or GDP loaded KRAS G12C: A: percent of modification ≥70%; B: 50≤percent of modification <70%; C: 10%≤percent of modification <50%; D: percent of modification <10%. […] For pERK inhibition in H358 cell assay: A: IC50≤0.1 μM; B: 0.1 μM<IC50≤1 μM; C: IC50>1 μM. Blanks in the table represent that compound was not tested in the indicated assay.

[2] = target: T2, GTP-loaded KRAS4b (amino acids 1-169) G12C/C118S protein (Homo sapiens, UniProt P01116, C118S/G12C); assay: Covalent cysteine 12 modification by MALDI-TOF MS, GTP-loaded KRAS G12C; format: binding; details: 15 minutes reaction time point
T2 construct: KRAS4b (amino acids 1-169) G12C/C118S protein; made in house
Summary of the method: (§1)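 With several adducts, each species' height is expressed as a fraction of all observed protein peaks, scored on linear-mode spectra. Reactions run at pH 7.3 (HEPES, 150 mM NaCl, 1 mM MgCl2), using 1 μM protein and a 1:2.5 protein:compound ratio, and are sampled after 15 minutes in the dark.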

[3] = target: T3, GDP-loaded KRAS4b (amino acids 1-169) G12C/C118S protein (Homo sapiens, UniProt P01116, C118S/G12C); assay: Covalent cysteine 12 modification by MALDI-TOF MS, GDP-loaded KRAS G12C; format: binding; details: 15 minutes reaction time point
T3 construct: KRAS4b (amino acids 1-169) G12C/C118S protein; made in house
Summary of the method: as §1

| SMILES | IC50 [1] [nM] | GTP-KRAS G12C percent of modification [2] | GDP-KRAS G12C percent of modification [3] |
| --- | --- | --- | --- |
| C=CC(=O)N1CC[C@@H](N(C)c2nc(OC[C@H]3C[C@@H](OC)CN3C)nc3c(F)c(-c4ccc(F)c5sc(N)c(C#N)c45)c(C(F)(F)F)cc23)[C@H]1C (single isomer, unassigned) [Compound 173] | < 500 | A (percent of modification ≥70%) | A (percent of modification ≥70%) |
| C=CC(=O)N1CC[C@@H](N(C)c2nc(OC[C@@H]3C[C@@H](OC)CN3C)nc3c(F)c(-c4ccc(F)c5sc(N)c(C#N)c45)c(C(F)(F)F)cc23)[C@H]1C (single isomer, unassigned) [Compound 174] | 500 to 5000 | D (percent of modification <10%) | D (percent of modification <10%) |
| C=CC(=O)N1CC[C@@H](N(C)c2nc(OC[C@H]3C[C@@H](OC)CN3C)nc3c(F)c(-c4ccc(F)c5sc(N)c(C#N)c45)c(C(F)(F)F)cc23)[C@H]1C (single isomer, unassigned) [Compound 175] | 5000 to 20000 | D (percent of modification <10%) | D (percent of modification <10%) |
| C=CC(=O)N1CC[C@@H](N(C)c2nc(OC[C@@]34CCCN3C[C@H](F)C4)nc3c(F)c(-c4ccc(F)c5sc(N)c(C#N)c45)ccc23)[C@H]1CC [Compound 4] | < 500 | A (percent of modification ≥70%) | A (percent of modification ≥70%) |
| C=CC(=O)N1CCC(N(C)c2nc(OC[C@@]34CCCN3C[C@H](F)C4)nc3cc(-c4ccc(F)c5sc(N)c(C#N)c45)c(C#N)cc23)[C@H]1CC (stereo partly drawn) [Compound 7] | < 500 | A (percent of modification ≥70%) | A (percent of modification ≥70%) |
| C=CC(=O)N1CCC(N(CC)c2nc(OC[C@@]34CCCN3C[C@H](F)C4)nc3c(F)c(-c4ccc(F)c5sc(N)c(C#N)c45)c(C(F)(F)F)cc23)[C@H]1CC (stereo partly drawn) [Compound 8] | < 500 | C (10%≤percent of modification <50%) | C (10%≤percent of modification <50%) |
| C=CC(=O)N1CCC(N(C)c2nc(OC[C@@H]3CCCN3C)nc3c(F)c(-c4nc(N)cc(C)c4C(F)(F)F)c(Cl)cc23)[C@H]1C (stereo partly drawn) [Compound 9] | < 500 | C (10%≤percent of modification <50%) | B (50≤percent of modification <70%) |
| C=CC(=O)N1CCC(N(C)c2nc(OC[C@@]34CCCN3C[C@H](F)C4)nc3c(F)c(-c4nc(N)cc(C)c4C(F)(F)F)c(Cl)cc23)[C@H]1C (stereo partly drawn) [Compound 10] | < 500 | B (50≤percent of modification <70%) | A (percent of modification ≥70%) |
| C=CC(=O)N1CCC(N(CC)c2nc(OC[C@@]34CCCN3C[C@H](F)C4)nc3c(F)c(-c4ccc(F)c5sc(N)c(C#N)c45)ccc23)[C@H]1CC (stereo partly drawn) [Compound 11] | < 500 | A (percent of modification ≥70%) | A (percent of modification ≥70%) |
| C=CC(=O)N1CCC(N(CC)c2nc(OC[C@@]34CCCN3C[C@H](F)C4)nc3c(F)c(-c4ccc(F)c5sc(N)c(C#N)c45)c(Cl)cc23)[C@H]1CC (stereo partly drawn) [Compound 12] | < 500 | C (10%≤percent of modification <50%) | C (10%≤percent of modification <50%) |
| C=CC(=O)N1CCC(N(CC)c2nc(OC[C@@]34CCCN3C[C@H](F)C4)nc3cc(-c4ccc(F)c5sc(N)c(C#N)c45)c(C#N)cc23)[C@H]1CC (stereo partly drawn) [Compound 14] | < 500 | B (50≤percent of modification <70%) | A (percent of modification ≥70%) |
| C=CC(=O)N1CC[C@@H](N(CC)c2nc(OC[C@@]34CCCN3C[C@H](F)C4)nc3c(F)c(-c4ccc(F)c5sc(N)c(C#N)c45)ccc23)[C@H]1C [Compound 17, 4-(4-(((2R,3R)-1-acryloyl-2-methylpyrrolidin-3-yl)(ethyl)amino)-8-fluoro-2-(((2R,7aS)-2-fluorotetrahydro-1H-pyrrolizin-7a(5H)-yl)methoxy)quinazolin-7-yl)-2-amino-7-fluorobenzo[b]thiophene-3-carbonitrile] | < 500 | A (percent of modification ≥70%) | A (percent of modification ≥70%) |
| C=CC(=O)N1CC[C@@H](N(C)c2nc(OC[C@@]34CCCN3C[C@H](F)C4)nc3c(F)c(-c4ccc(F)c5sc(N)c(C#N)c45)c(C(F)(F)F)cc23)[C@H]1CC [Compound 18] | < 500 | C (10%≤percent of modification <50%) | B (50≤percent of modification <70%) |
| C=CC(=O)N1CC[C@@H](N(C)c2nc(OC[C@@]34CCCN3C[C@H](F)C4)nc3c(F)c(-c4ccc(F)c5sc(N)c(C#N)c45)c(Cl)cc23)[C@H]1CC [Compound 19] | < 500 | C (10%≤percent of modification <50%) | C (10%≤percent of modification <50%) |
| C=CC(=O)N1CC[C@@H](N(CC)c2nc(OC[C@@]34CCCN3C[C@H](F)C4)nc3c(F)c(-c4ccc(F)c5sc(N)c(C#N)c45)c(Cl)cc23)[C@H]1CC [Compound 20] | < 500 | C (10%≤percent of modification <50%) | C (10%≤percent of modification <50%) |
| C=CC(=O)N1CC[C@@H](N(C)c2nc(OC[C@@]34CCCN3C[C@H](F)C4)nc3cc(-c4ccc(F)c5sc(N)c(C#N)c45)c(F)cc23)[C@@H]1CC [Compound 22] | 500 to 5000 | D (percent of modification <10%) | A (percent of modification ≥70%) |
| C=CC(=O)N1CC[C@@H](N(C)c2nc(OC[C@@]34CCCN3C[C@H](F)C4)nc3c(F)c(-c4ccc(F)c5sc(N)c(C#N)c45)ccc23)[C@@H]1CC [Compound 23] | < 500 | C (10%≤percent of modification <50%) | A (percent of modification ≥70%) |
| C=CC(=O)N1CC[C@@H](N(C)c2nc(OC[C@@]34CCCN3C[C@H](F)C4)nc3cc(-c4ccc(F)c5sc(N)c(C#N)c45)c(C#N)cc23)[C@@H]1CC [Compound 24] | < 500 | D (percent of modification <10%) | A (percent of modification ≥70%) |
| C=CC(=O)N1CC[C@@H](N(CC)c2nc(OC[C@@]34CCCN3C[C@H](F)C4)nc3cc(-c4ccc(F)c5sc(N)c(C#N)c45)c(C#N)cc23)[C@H]1C [Compound 25] | < 500 | A (percent of modification ≥70%) | A (percent of modification ≥70%) |
| C=CC(=O)N1CC[C@@H](N(C)c2nc(OC[C@@]34CCCN3C[C@H](F)C4)nc3cc(-c4ccc(F)c5sc(N)c(C#N)c45)c(C#N)cc23)[C@@H]1C [Compound 27] | < 500 | B (50≤percent of modification <70%) | A (percent of modification ≥70%) |
| C=CC(=O)N1CC[C@@H](N(C)c2nc(OC[C@@]34CCCN3C[C@H](F)C4)nc3cc(-c4ccc(F)c5sc(N)c(C#N)c45)c(F)cc23)[C@H]1CC [Compound 29] | < 500 | A (percent of modification ≥70%) | A (percent of modification ≥70%) |
